“Also recorded” adds a separate entry of the source. Where no end group is shown, it is not given here.
Assays:
[1] = test system: male suffering from impotence, which is substantially only neurogenic or psychogenic; assay: Intracavernosal injection coupled with sexual stimulation in males with impotence that is substantially only neurogenic or psychogenic; type: in vivo, human; details: for time to erection sufficient for vaginal penetration: 1 ml of 30 μg/ml in phosphate buffered saline, after tourniquet release (5-10 minutes after injection) and sexual stimulation; for dose with which virtually all males achieve an erection sufficient for vaginal penetration: intracavernosal injection in physiologically acceptable diluent; for dose with which virtually all males achieve an erection sufficient for vaginal penetration / dose as low as which many males achieve an erection sufficient for vaginal penetration: coupled with sexual stimulation; for dose as low as which many males achieve an erection sufficient for vaginal penetration: intracavernosal injection
Procedure: A preferred composition to effect an erection in male suffering from impotence, which is substantially only neurogenic or psychogenic, in accord with the methods herein, is a solution of PHM or VIP at 30 μg/ml in phosphate buffered saline at pH between about 2 and about 4.5, preferably between about 2 and about 3.5 and most preferably about 3, with the PHM or VIP the only substance in the solution that is pharmacologically active in inducing an erection. Preferably 1 ml of the preferred composition is administered as a bolus by injection into a corpus cavernosum while the penis is constricted at its base with a tourniquet. About 5-10 minutes after the injection, the tourniquet is released and, if not already started before the tourniquet is released, sexual stimulation is begun. […] The composition, however, the time between administration and sexual stimulation may be longer, if necessary.

human males [2] = assay: Side effects of intracavernosal injection to induce an erection; type: in vivo
[3] = test system: males suffering from impotence of which severe atherosclerosis is a cause; assay: Intracavernosal injection coupled with sexual stimulation in males with impotence of which severe atherosclerosis is a cause; type: in vivo, human
Procedure: To minimize side-effects when VIP is employed in such a composition, it is preferred that less than about 60 μg of VIP be administered.
Thus, between about 0. […] If necessary, the time between injection and sexual stimulation may be longer, up to several hours.

[4] = test system: males suffering from impotence of which severe atherosclerosis is a cause; details: background statement; cited from earlier work
[5] = test system: normal male (males not suffering from erectile insufficiency); details: cited from earlier work
[6] = test system: male suffering from impotence, which is substantially only neurogenic or psychogenic; details: cited from earlier work; for erection after intracavernosal injection where severe atherosclerosis is not involved (background): injection into a corpus cavernosum
human males [7] = details: cited from earlier work; for priapism (background): treatment of impotence

Row | Compound | time to erection sufficient for vaginal penetration [1] [min] | dose with which virtually all males achieve an erection sufficient for vaginal penetration [1] [µg] | dose as low as which many males achieve an erection sufficient for vaginal penetration [1] [µg] | induction of erection in impotence caused by severe atherosclerosis [3] | induction of erection in impotence due to severe atherosclerosis (background) [4] | erection after intracavernosal injection where severe atherosclerosis is not involved (background) [6] | priapism (background) (human males [7]) | also measured
1 | peptide N-terminal histidine C-terminal methionineamide (HADGVFTSDFSKLLGQLSAKKYLESLM-NH2; UniProt P01282 81-107, looked up) [PHM] | ≤ 5 | 30 | 10 | not effective in inducing erections | – | – | – | duration of pharmacological effect compared with VIP ([1]; at the same dosage): somewhat longer lasting pharmacological effect than VIP; priapism (human males [2]; induction of an erection with VIP or PHM by intracavernosal injection): does not entail priapism; also recorded: Priapism does not occur
2 | human vasoactive intestinal peptide [VIP] | ≤ 5 | 30 | 10 | not effective in inducing erections | does not induce erections | – | – | side-effects observed at higher doses (human males [2]; in vivo): hypotension, increased pulse rate, flushing of the face and trunk; erectile response coupled with visual and/or vibratory sexual stimulation ([5]; as little as 1 μm (at 1 μm/ml of diluent) injected into a corpus cavernosum): facilitates full erection; erectile response without sexual stimulation ([5]; injection of up to 20 μm of VIP (at 20 μm/ml of diluent) into a corpus cavernosum, no sexual stimulation): only slight swelling (slight tumescence) of the penis but not an erection
3 | CC(COc1ccccc1)N(CCCl)Cc1ccccc1 (centres unmarked) [phenoxybenzamine] | – | – | – | – | not susceptible to treatment | cause an erection sufficient for vaginal penetration | often results in priapism | carcinogenicity (background) (human males [7]; in vivo): is a carcinogen
4 | Cc1ccc(N(CC2=NCCN2)c2cccc(O)c2)cc1 [phentolamine] | – | – | – | – | not susceptible to treatment | causes an erection sufficient for vaginal penetration | – | duration of resulting erection (background) ([6]; intracavernosal injection, severe atherosclerosis not a cause): significantly shorter duration than that induced by intracavernosal injection of papaverine or phenoxybenzamine
5 | COc1ccc(Cc2nccc3cc(OC)c(OC)cc23)cc1OC [papaverine] | – | – | – | – | ineffective; also recorded: not susceptible to treatment | cause an erection sufficient for vaginal penetration | often results in priapism | pain on injection (background) (human males [7]; intracavernosal use): painful, burning sensation in the first two or so minutes after the injection; fibrosis on repeated use (background) (human males [7]; repeated use): undesirable, extensive intracavernous fibrosis

— patent US5447912A, “Erection-inducing methods and compositions” (priority 1993, dated 1995)
